Source: patent US20040023299A1, “Diagnosis of liver disease” (priority 2000, published 2004)
Read-outs that look alike come from different tables or passages of the source.

Conditions: rats
Experimental: Chronic liver disease was established by exposing the animals of the 3 experimental groups to weekly intra-gastric administration of CCl4. A starting dose of 80 μl was used and increased weekly, based on the weight of the animals. Nothing was administered to the control group. All the animals were weighed on day one and the experimental groups started with their 80 μl CCl4. After three days the animals were again weighed to determine the dose for the second week. That was the procedure for the administration of the CC4 l during the entire experiment. On day three of week five, the scanning of group 1 started. Anaesthesia in each case was induced with an intraperitoneal injection of sodium pentobarbitone 6% solution (Sagatal, Kryon Laboratories Pty Ltd., Benrose, Gauteng, S. A). […] After the completion of the acquisition, the rats were terminated by an intravenous overdose of sodium pentobarbitone. The livers were taken out, stored in a 10% formalin solution until the next day and then processed and stained with Haematoxylin and Eosin, Reticulin and Cyrus red.
Liver sections of the rats were stained with H&E, Masson Trichrome and Reticulin stains. The amount of necrosis and fibrosis were interpreted by an experienced hepatopathologist and scored according to a classification system whereby 1 was mild necrosis or fibrosis and 4 severe.

[1] = weekly intra-gastric CCl4, after 5 weeks
[2] = weekly intra-gastric CCl4, after 7 weeks
[3] = weekly intra-gastric CCl4, after 9 weeks

## ClC(Cl)(Cl)Cl [CCl4]
[1]
  average score for fibrosis (1 mild, 4 severe): 1.9
  average score for necrosis (1 mild, 4 severe): 1.9
[2]
  average score for fibrosis (1 mild, 4 severe): 1.9
  average score for necrosis (1 mild, 4 severe): 1.7
[3]
  average score for fibrosis (1 mild, 4 severe): 2.1
  average score for necrosis (1 mild, 4 severe): 1.4
